Where a name gives a salt, the structure may show the parent alone.
Experiments:
Format in all cases: biochemical
[1] = molecular target: T1, GST-tagged recombinant full-length human Pim-2 (Homo sapiens, UniProt Q9P1W9); experiment: PIM-2 Assay (as Example A); details: averaged IC50; 4 μM ATP, 1.0 μM PIM2tide, 1.5 nM Pim-2
T1 construct: GST-tagged recombinant full-length human Pim-2; GST
In short: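 Radiometric filter-binding assay: GST-tagged full-length human Pim-2 (1.5 nM) phosphorylates 1.0 μM PIM2tide with 4 μM [γ-33P]ATP for 60 min at 22 °C in pH 7.4 MOPS buffer, 2% DMSO. 10-point 3-fold dilutions from 10 μM top dose; IC50 from 4-parameter fit of percent of control.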

recombinant rat PIM-3 = recombinant rat PIM-3 (Rattus norvegicus, UniProt O70444); experiment: PIM-3 Assay (as Example A); details: averaged IC50; 30 μM ATP, 3.75 μM PIM2tide, 0.5 nM PIM-3
In short: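 Recombinant rat PIM-3 (0.5 nM) with 3.75 μM PIM2tide and 30 μM [γ-33P]ATP in MOPS pH 7.4 buffer, 60 min at 22 °C; labelled peptide captured on phosphocellulose filters and counted by scintillation. 10-point curve (top dose 10 μM, 2% DMSO); IC50 from 4-parameter fit of percent of control.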

PIM-1 = PIM-1 (Homo sapiens, UniProt P11309); experiment: Enzyme PIM-1 Assay ([33P]ATP incorporation into PIM2tide, filter plate); details: averaged IC50; 35 μM ATP, 7.5 μM PIM2tide, 0.25 nM PIM-1, 60 min at 22° C.
In short: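 Radiometric assay: 0.25 nM PIM-1 phosphorylates 7.5 μM PIM2tide with 35 μM [γ-33P]ATP in 20 mM MOPS pH 7.4, 10 mM MgCl2, 1 mM DTT, 0.005% Tween-20, 60 min at 22 °C. Product captured on P81 filters, scintillation counted; 10-point 3-fold curve from 10 μM top, 2% DMSO, IC50 by 4-parameter logistic fit of POC.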

PIM-1, sequence (P11309 whole entry, species assumed): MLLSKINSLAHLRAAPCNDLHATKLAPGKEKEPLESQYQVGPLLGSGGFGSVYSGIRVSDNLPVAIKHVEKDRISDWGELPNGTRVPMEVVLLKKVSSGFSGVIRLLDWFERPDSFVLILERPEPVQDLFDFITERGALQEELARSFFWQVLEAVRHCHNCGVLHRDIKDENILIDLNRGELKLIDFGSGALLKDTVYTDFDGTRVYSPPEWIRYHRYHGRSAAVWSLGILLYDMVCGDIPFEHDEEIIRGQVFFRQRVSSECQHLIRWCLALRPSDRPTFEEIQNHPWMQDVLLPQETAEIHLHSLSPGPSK
T1 sequence (Q9P1W9 whole entry): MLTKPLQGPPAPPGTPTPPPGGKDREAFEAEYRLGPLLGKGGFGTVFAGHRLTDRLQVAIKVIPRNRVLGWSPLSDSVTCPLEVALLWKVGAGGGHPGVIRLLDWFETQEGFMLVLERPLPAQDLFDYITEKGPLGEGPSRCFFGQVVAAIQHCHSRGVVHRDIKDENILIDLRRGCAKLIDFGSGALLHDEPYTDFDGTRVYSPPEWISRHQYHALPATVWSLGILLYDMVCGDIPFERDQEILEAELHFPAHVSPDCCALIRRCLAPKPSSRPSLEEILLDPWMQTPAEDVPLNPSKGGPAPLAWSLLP

Row | Compound | IC50 [1] [nM] | IC50 (recombinant rat PIM-3) [nM] | IC50 (PIM-1) [nM]
1 | CCOc1ccc2ccc(-c3nnc4ccc([C@H](N5CC[C@](C)(N)C5)C(F)(F)F)cn34)nc2c1 [Example 262, (S)-1-((S)-1-(3-(7-ethoxyquinolin-2-yl)-[1,2,4]triazolo[4,3-a]pyridin-6-yl)-2,2,2-trifluoroethyl)-3-methylpyrrolidin-3-amine dihydrochloride] | 63 | 0.4 | 0.22
2 | COCC(C)(C)Oc1cccc2ccc(-c3nnc4ccc([C@@H](N5CC[C@H](N)C5)C(F)(F)F)cn34)nc12 [Example 263, (S)-1-((R)-2,2,2-trifluoro-1-(3-(8-(1-methoxy-2-methylpropan-2-yloxy)quinolin-2-yl)-[1,2,4]triazolo[4,3-a]pyridin-6-yl)ethyl)pyrrolidin-3-amine formate] | 454 | 3 | 0.66
3 | COCC(C)(C)Oc1cc(F)cc2ccc(-c3nnc4ccc([C@@H](N5CC[C@H](N)C5)C(F)(F)F)cn34)nc12 [Example 264, (S)-1-((R)-2,2,2-trifluoro-1-(3-(6-fluoro-8-(1-methoxy-2-methylpropan-2-yloxy)quinolin-2-yl)-[1,2,4]triazolo[4,3-a]pyridin-6-yl)ethyl)pyrrolidin-3-amine formate] | 255 | 1.3 | 0.54
4 | N[C@H]1CCN([C@H](c2ccc3nnc(-c4ccc5ccc(CCO)cc5n4)n3c2)C(F)(F)F)C1 [Example 265, 2-(2-(6-((R)-1-((S)-3-aminopyrrolidin-1-yl)-2,2,2-trifluoroethyl)-[1,2,4]triazolo[4,3-a]pyridin-3-yl)quinolin-7-yl)ethanol dihydrochloride] | > 1000 | 1.3 | 0.53
5 | CCSc1ccc2ccc(-c3nnc4ccc([C@@H](N5CC[C@H](N)C5)C(F)(F)F)cn34)nc2c1 [Example 266, (S)-1-((R)-1-(3-(7-(ethylthio)quinolin-2-yl)-[1,2,4]triazolo[4,3-a]pyridin-6-yl)-2,2,2-trifluoroethyl)pyrrolidin-3-amine hydrochloride] | 690 | 1 | 0.5
6 | N[C@H]1CCN([C@H](c2ccc3nnc(-c4ccc5ccc(SCCO)cc5n4)n3c2)C(F)(F)F)C1 [Example 267, 2-(2-(6-((R)-1-((S)-3-aminopyrrolidin-1-yl)-2,2,2-trifluoroethyl)-[1,2,4]triazolo[4,3-a]pyridin-3-yl)quinolin-7-ylthio)ethanol hydrochloride] | 350 | 0.7 | 0.35
7 | CC(C)Sc1ccc2ccc(-c3nnc4ccc([C@@H](N5CC[C@H](N)C5)C(F)(F)F)cn34)nc2c1 [Example 268, (S)-1-((R)-2,2,2-trifluoro-1-(3-(7-(isopropylthio)quinolin-2-yl)-[1,2,4]triazolo[4,3-a]pyridin-6-yl)ethyl)pyrrolidin-3-amine hydrochloride] | > 1000 | 3.4 | 0.89
8 | COCCc1ccc2ccc(-c3nnc4ccc([C@@H](N5CC[C@H](N)C5)C(F)(F)F)cn34)nc2c1 [Example 269, (S)-1-((R)-2,2,2-trifluoro-1-(3-(7-(2-methoxyethyl)quinolin-2-yl)-[1,2,4]triazolo[4,3-a]pyridin-6-yl)ethyl)pyrrolidin-3-amine dihydrochloride] | 413 | 2 | 0.37
9 | N#CCOc1cccc2ccc(-c3nnc4ccc([C@@H](N5CC[C@H](N)C5)C(F)(F)F)cn34)nc12 [Example 270, 2-(2-(6-((R)-1-((S)-3-aminopyrrolidin-1-yl)-2,2,2-trifluoroethyl)-[1,2,4]triazolo[4,3-a]pyridin-3-yl)quinolin-8-yloxy)acetonitrile formate] | 434 | 1.9 | 0.38

Further lines, results first:

Row | IC50 [1] [nM] | IC50 (recombinant rat PIM-3) [nM] | IC50 (PIM-1) [nM] | Compound
10 | 647 | 4.3 | 0.73 | COCC(COC)Oc1cccc2ccc(-c3nnc4ccc([C@@H](N5CC[C@H](N)C5)C(F)(F)F)cn34)nc12 [Example 271, ((S)-1-((R)-1-(3-(8-(1,3-dimethoxypropan-2-yloxy)quinolin-2-yl)-[1,2,4]triazolo[4,3-a]pyridin-6-yl)-2,2,2-trifluoroethyl)pyrrolidin-3-aminedihydrochloride]
11 | 124 | 0.5 | 0.24 | CC(C)(O)COc1cccc2ccc(-c3nnc4ccc([C@@H](N5CC[C@@](C)(N)C5)C(F)(F)F)cn34)nc12 [Example 272, 1-(2-(6-((R)-1-((R)-3-amino-3-methylpyrrolidin-1-yl)-2,2,2-trifluoroethyl)-[1,2,4]triazolo[4,3-a]pyridin-3-yl)quinolin-8-yloxy)-2-methylpropan-2-ol dihydrochloride]
12 | > 1000 | 43 | 25.9 | CCSc1cccc2ccc(-c3nnc4ccc([C@@H](N5CC[C@H](N)C5)C(F)(F)F)cn34)nc12 [Example 273, (S)-1-((R)-1-(3-(8-(ethylthio)quinolin-2-yl)-[1,2,4]triazolo[4,3-a]pyridin-6-yl)-2,2,2-trifluoroethyl)pyrrolidin-3-amine hydrochloride]
13 | 961 | 1.7 | 0.4 | CCOCCOc1ccc2ccc(-c3nnc4ccc([C@@H](N5CC[C@H](N)C5)C(F)(F)F)cn34)nc2c1 [Example 274, (S)-1-((R)-1-(3-(7-(2-ethoxyethoxy)quinolin-2-yl)-[1,2,4]triazolo[4,3-a]pyridin-6-yl)-2,2,2-trifluoroethyl)pyrrolidin-3-amine dihydrochloride]
14 | 376 | 0.7 | 0.2 | COCCCOc1ccc2ccc(-c3nnc4ccc([C@@H](N5CC[C@H](N)C5)C(F)(F)F)cn34)nc2c1 [Example 275, (S)-1-((R)-2,2,2-trifluoro-1-(3-(7-(3-methoxypropoxy)quinolin-2-yl)-[1,2,4]triazolo[4,3-a]pyridin-6-yl)ethyl)pyrrolidin-3-amine dihydrochloride]
15 | 44 | 0.3 | 0.2 | COC(C)(C)COc1cccc2ccc(-c3nnc4ccc([C@@H](N5CC[C@H](N)C5)C(F)(F)F)cn34)nc12 [Example 276, (S)-1-((R)-2,2,2-trifluoro-1-(3-(8-(2-methoxy-2-methylpropoxy)quinolin-2-yl)-[1,2,4]triazolo[4,3-a]pyridin-6-yl)ethyl)pyrrolidin-3-amine formate]
16 | 231 | 0.7 | 0.28 | CO[C@H](C)COc1ccc2ccc(-c3nnc4ccc([C@@H](N5CC[C@H](N)C5)C(F)(F)F)cn34)nc2c1 [Example 277, (S)-1-((R)-2,2,2-trifluoro-1-(3-(7-((R)-2-methoxypropoxy)quinolin-2-yl)-[1,2,4]triazolo[4,3-a]pyridin-6-yl)ethyl)pyrrolidin-3-amine dihydrochloride]
17 | 180 | 0.4 | 0.23 | CC(C)(O)COc1ccc2ccc(-c3nnc4ccc([C@@H](N5CC[C@H](N)C5)C(F)(F)F)cn34)nc2c1 [Example 278, 1-(2-(6-((R)-1-((S)-3-aminopyrrolidin-1-yl)-2,2,2-trifluoroethyl)-[1,2,4]triazolo[4,3-a]pyridin-3-yl)quinolin-7-yloxy)-2-methylpropan-2-ol dihydrochloride]
18 | 431 | 3.1 | 0.96 | CCOc1cc2nc(-c3nnc4ccc([C@@H](N5CC[C@@H](CN)C5)C(F)(F)F)cn34)ccc2cc1F [Example 279, ((S)-1-((R)-1-(3-(7-ethoxy-6-fluoroquinolin-2-yl)-[1,2,4]triazolo[4,3-a]pyridin-6-yl)-2,2,2-trifluoroethyl)pyrrolidin-3-yl)methanamine hydrochloride]
19 | 418 | 2.5 | 0.62 | CCOc1cc2nc(-c3nnc4ccc([C@@H](N5CC[C@H](CN)C5)C(F)(F)F)cn34)ccc2cc1F [Example 280, ((R)-1-((R)-1-(3-(7-ethoxy-6-fluoroquinolin-2-yl)-[1,2,4]triazolo[4,3-a]pyridin-6-yl)-2,2,2-trifluoroethyl)pyrrolidin-3-yl)methanamine hydrochloride]
20 | 242 | 0.7 | 0.26 | CSCCOc1ccc2ccc(-c3nnc4ccc([C@@H](N5CC[C@H](N)C5)C(F)(F)F)cn34)nc2c1 [Example 281, (S)-1-((R)-2,2,2-trifluoro-1-(3-(7-(2-(methylthio)ethoxy)quinolin-2-yl)-[1,2,4]triazolo[4,3-a]pyridin-6-yl)ethyl)pyrrolidin-3-amine hydrochloride]
21 | 166 | 0.8 | 0.28 | CCOc1cc2nc(-c3nnc4ccc([C@@H](N5CC[C@@H](N)C5)C(F)(F)F)cn34)ccc2cc1F [Example 282, (R)-1-((R)-1-(3-(7-ethoxy-6-fluoroquinolin-2-yl)-[1,2,4]triazolo[4,3-a]pyridin-6-yl)-2,2,2-trifluoroethyl)pyrrolidin-3-amine hydrochloride]
